Key:
Experiment in all cases: Post-emergence glasshouse spray test, visual percentage phytotoxicity after 13 days
Format in all cases: in vivo
[1] = system: Abutilon threophrasti (ABUTH); conditions: B1
Experimental: (§1) Seeds of Setaria faberi (SETFA), Echinochloa crus-galli (ECHCG), Digitaria sanguinalis (DIGSA), Lolium perenne (LOLPE), Alopecurus myosuroides (ALOMY), Chenopodium album (CHEAL), Ipomoea hederacea (IPOHE), Stellaria media (STEME), Abutilon threophrasti (ABUTH), Amaranthus retroflexus (AMARE) were sown in standard sterilised soil in pots. After cultivation for 8 days under controlled conditions in a glasshouse (at 24/19° C., day/night; 16 hours light; no humidity control), the plants were sprayed at 500 l/Ha with an aqueous spray solution derived from the formulation of the technical active ingredients in a small amount of acetone and a solvent and emulsifier mixture referred to as IF50 (11.12% Emulsogen EL360™+44.44% N-methylpyrrolidone+44.44% Dowanol DPM glycol ether), to create a 50 g/l solution which was then diluted using 0.2% Genapol XO80 (CAS Number: 9043-30-5) as diluent to give the desired final dose of test compound.
(§2) Where active ingredients were applied as mixtures, aqueous spray solutions were prepared as above, containing both active ingredients.
(§3) The test plants were then grown under controlled conditions in a glasshouse (at 24/18° C., day/night; 15 hours light; 50% humidity) and watered twice daily. After 13 days, the test was evaluated visually for percentage phytotoxicity to the plants (where 100=total damage to plant; 0=no damage to plant; and NC=not captured) when compared to control untreated plants. Two to four replicates were applied for each treatment in a randomised block test design.
(§4) 22., E=X+Y−(X*Y/100), where
(§5) X=average percent phytotoxicity of herbicide A when applied at a certain rate Y=average percent phytotoxicity using herbicide B when applied at a certain rate E=the expected effect of the mixture of herbicides A and B as calculated from the Colby formula.

[2] = system: Alopecurus myosuroides (ALOMY); conditions: for ALOMY percentage phytotoxicity: B1; for Observed phytotoxicity ALOMY: B2.2.5
Experimental: as §1, §2, §3, §4, §5

[3] = system: Amaranthus retroflexus (AMARE); conditions: for AMARE percentage phytotoxicity: B1; for Observed phytotoxicity AMARE: B2.2.6
Experimental: as §1, §2, §3, §4, §5

[4] = system: Chenopodium album (CHEAL); conditions: B1
Experimental: as §1, §2, §3, §4, §5

[5] = system: Digitaria sanguinalis (DIGSA); conditions: for DIGSA percentage phytotoxicity: B1; for Observed phytotoxicity DIGSA: B2.2.3
Experimental: as §1, §2, §3, §4, §5

[6] = system: Echinochloa crus-galli (ECHCG); conditions: for ECHCG percentage phytotoxicity: B1; for Observed phytotoxicity ECHCG: B2.2.2
Experimental: as §1, §2, §3, §4, §5

[7] = system: Ipomoea hederacea (IPOHE); conditions: B1
Experimental: as §1, §2, §3, §4, §5

Lolium perenne (LOLPE) = conditions: for LOLPE percentage phytotoxicity: B1; for Observed phytotoxicity LOLPE: B2.2.4
Experimental: as §1, §2, §3, §4, §5

Setaria faberi (SETFA) = conditions: for SETFA percentage phytotoxicity: B1; for Observed phytotoxicity SETFA: B2.2.1
Experimental: as §1, §2, §3, §4, §5

Stellaria media (STEME) = conditions: B1
Experimental: as §1, §2, §3, §4, §5

Compound: CC1(C)CN(Cc2ccccc2NS(=O)(=O)C(F)(F)F)C1=O [B-IV]
- ABUTH percentage phytotoxicity ([1]; 31.25 g/ha post-emergence): 80%
- ABUTH percentage phytotoxicity ([1]; 62.5 g/ha post-emergence): 80%
- ABUTH percentage phytotoxicity ([1]; 125 g/ha post-emergence): 90%
- ABUTH percentage phytotoxicity ([1]; 250 g/ha post-emergence): 98%
- ABUTH percentage phytotoxicity ([1]; 500 g/ha post-emergence): 85%
- ABUTH percentage phytotoxicity ([1]; 1000 g/ha post-emergence): 85%
- ALOMY percentage phytotoxicity ([2]; 31.25 g/ha post-emergence): 4%
- ALOMY percentage phytotoxicity ([2]; 62.5 g/ha post-emergence): 2%
- ALOMY percentage phytotoxicity ([2]; 125 g/ha post-emergence): 1%
- ALOMY percentage phytotoxicity ([2]; 250 g/ha post-emergence): 3%
- ALOMY percentage phytotoxicity ([2]; 500 g/ha post-emergence): 8%
- ALOMY percentage phytotoxicity ([2]; 1000 g/ha post-emergence): 8%
- Observed phytotoxicity ALOMY ([2]; 500 g/ha post-emergence): 8%
- Observed phytotoxicity ALOMY ([2]; 1000 g/ha post-emergence): 8%
- AMARE percentage phytotoxicity ([3]; 31.25 g/ha post-emergence): 0%
- AMARE percentage phytotoxicity ([3]; 62.5 g/ha post-emergence): 15%
- AMARE percentage phytotoxicity ([3]; 125 g/ha post-emergence): 43%
- AMARE percentage phytotoxicity ([3]; 250 g/ha post-emergence): 43%
- AMARE percentage phytotoxicity ([3]; 500 g/ha post-emergence): 75%
- AMARE percentage phytotoxicity ([3]; 1000 g/ha post-emergence): 85%
- Observed phytotoxicity AMARE ([3]; 31.25 g/ha post-emergence): 0%
- Observed phytotoxicity AMARE ([3]; 62.5 g/ha post-emergence): 15%
- CHEAL percentage phytotoxicity ([4]; 31.25 g/ha post-emergence): 0%
- CHEAL percentage phytotoxicity ([4]; 62.5 g/ha post-emergence): 8%
- CHEAL percentage phytotoxicity ([4]; 125 g/ha post-emergence): 15%
- CHEAL percentage phytotoxicity ([4]; 250 g/ha post-emergence): 40%
- CHEAL percentage phytotoxicity ([4]; 500 g/ha post-emergence): 25%
- CHEAL percentage phytotoxicity ([4]; 1000 g/ha post-emergence): 75%
- DIGSA percentage phytotoxicity ([5]; 31.25 g/ha post-emergence): 0%
- DIGSA percentage phytotoxicity ([5]; 62.5 g/ha post-emergence): 3%
- DIGSA percentage phytotoxicity ([5]; 125 g/ha post-emergence): 8%
- DIGSA percentage phytotoxicity ([5]; 250 g/ha post-emergence): 10%
- DIGSA percentage phytotoxicity ([5]; 500 g/ha post-emergence): 15%
- DIGSA percentage phytotoxicity ([5]; 1000 g/ha post-emergence): 55%
- Observed phytotoxicity DIGSA ([5]; 250 g/ha post-emergence): 10%
- Observed phytotoxicity DIGSA ([5]; 500 g/ha post-emergence): 15%
- Observed phytotoxicity DIGSA ([5]; 1000 g/ha post-emergence): 55%
- ECHCG percentage phytotoxicity ([6]; 31.25 g/ha post-emergence): 1%
- ECHCG percentage phytotoxicity ([6]; 62.5 g/ha post-emergence): 13%
- ECHCG percentage phytotoxicity ([6]; 125 g/ha post-emergence): 38%
- ECHCG percentage phytotoxicity ([6]; 250 g/ha post-emergence): 60%
- ECHCG percentage phytotoxicity ([6]; 500 g/ha post-emergence): 78%
- ECHCG percentage phytotoxicity ([6]; 1000 g/ha post-emergence): 90%
- Observed phytotoxicity ECHCG ([6]; 125 g/ha post-emergence): 38%
- Observed phytotoxicity ECHCG ([6]; 250 g/ha post-emergence): 60%
- Observed phytotoxicity ECHCG ([6]; 500 g/ha post-emergence): 78%
- IPOHE percentage phytotoxicity ([7]; 31.25 g/ha post-emergence): 55%
- IPOHE percentage phytotoxicity ([7]; 62.5 g/ha post-emergence): 80%
- IPOHE percentage phytotoxicity ([7]; 125 g/ha post-emergence): 75%
- IPOHE percentage phytotoxicity ([7]; 250 g/ha post-emergence): 83%
- IPOHE percentage phytotoxicity ([7]; 500 g/ha post-emergence): 83%
- IPOHE percentage phytotoxicity ([7]; 1000 g/ha post-emergence): 94%
- LOLPE percentage phytotoxicity (Lolium perenne (LOLPE); 31.25 g/ha post-emergence): 0%
- LOLPE percentage phytotoxicity (Lolium perenne (LOLPE); 62.5 g/ha post-emergence): 0%
- LOLPE percentage phytotoxicity (Lolium perenne (LOLPE); 125 g/ha post-emergence): 0%
- LOLPE percentage phytotoxicity (Lolium perenne (LOLPE); 250 g/ha post-emergence): 8%
- LOLPE percentage phytotoxicity (Lolium perenne (LOLPE); 500 g/ha post-emergence): 38%
- LOLPE percentage phytotoxicity (Lolium perenne (LOLPE); 1000 g/ha post-emergence): 65%
- Observed phytotoxicity LOLPE (Lolium perenne (LOLPE); 62.5 g/ha post-emergence): 0%
- Observed phytotoxicity LOLPE (Lolium perenne (LOLPE); 125 g/ha post-emergence): 0%
- Observed phytotoxicity LOLPE (Lolium perenne (LOLPE); 250 g/ha post-emergence): 8%
- Observed phytotoxicity LOLPE (Lolium perenne (LOLPE); 500 g/ha post-emergence): 38%
- Observed phytotoxicity LOLPE (Lolium perenne (LOLPE); 1000 g/ha post-emergence): 65%
- SETFA percentage phytotoxicity (Setaria faberi (SETFA); 31.25 g/ha post-emergence): 2%
- SETFA percentage phytotoxicity (Setaria faberi (SETFA); 62.5 g/ha post-emergence): 0%
- SETFA percentage phytotoxicity (Setaria faberi (SETFA); 125 g/ha post-emergence): 10%
- SETFA percentage phytotoxicity (Setaria faberi (SETFA); 250 g/ha post-emergence): 8%
- SETFA percentage phytotoxicity (Setaria faberi (SETFA); 500 g/ha post-emergence): 33%
- SETFA percentage phytotoxicity (Setaria faberi (SETFA); 1000 g/ha post-emergence): 63%
- Observed phytotoxicity SETFA (Setaria faberi (SETFA); 125 g/ha post-emergence): 10%
- Observed phytotoxicity SETFA (Setaria faberi (SETFA); 250 g/ha post-emergence): 8%
- Observed phytotoxicity SETFA (Setaria faberi (SETFA); 500 g/ha post-emergence): 33%
- Observed phytotoxicity SETFA (Setaria faberi (SETFA); 1000 g/ha post-emergence): 63%
- STEME percentage phytotoxicity (Stellaria media (STEME); 31.25 g/ha post-emergence): 85%
- STEME percentage phytotoxicity (Stellaria media (STEME); 62.5 g/ha post-emergence): 85%
- STEME percentage phytotoxicity (Stellaria media (STEME); 125 g/ha post-emergence): 91%
- STEME percentage phytotoxicity (Stellaria media (STEME); 250 g/ha post-emergence): 93%
- STEME percentage phytotoxicity (Stellaria media (STEME); 500 g/ha post-emergence): 90%
- STEME percentage phytotoxicity (Stellaria media (STEME); 1000 g/ha post-emergence): 93%

From patent publication US20230389548A1, “MIXTURES OF PYRIMIDINES AS HERBICIDAL COMPOSITIONS” (SYNGENTA CROP PROTECTION AG, priority 2020, published 2023)
